The text below walks through data of ChEMBL document CHEMBL1201862, “PubChem BioAssay data set” (2004).

Among the test systems are DLD-1; XF498; DMS-114; RXF 631; SNB-78; M19-MEL; KM-20L2; LXFL 529; HOP-18.
Common to all, as to experiment: NCI-60 cell line screen, 48 h

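Values below derive from 48-hour exposures of cells grown in 96-well plates, with endpoints linearly interpolated between the two concentrations bracketing the appropriate inhibition level. GI50: concentration for 50% inhibition of growth.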 Activity calls are given as the source filed them. Cut-off read from the data, not from the text of the source: active = GI50 up to about 1.1 µM and inactive = higher.

With `c1ccc(C2OC3(CCC[C@H]4C[C@H]43)O[C@H]2c2ccccc2)cc1` (stereo partly specified), the GI50 is 78.9 µM (inactive) with DLD-1; 22.7 µM (inactive) in the assay with XF498; 33.7 µM (inactive) in the assay on DMS-114; 89.3 µM (inactive) with RXF 631; 58.9 µM (inactive) in the assay with SNB-78; 32.2 µM (inactive) in the assay with M19-MEL. Moreover, the GI50 in the assay with KM-20L2 was 30.8 µM (inactive).

`CSc1ccc(N2C(=O)C3c4[nH]c5ccccc5c4C4CCC(C(C)(C)C)CC4C3C2=O)cc1` (stereo unspecified): the GI50 with DLD-1 was 52.4 µM (inactive); in the assay on XF498 it was 27.7 µM (inactive); with DMS-114, 15.2 µM (inactive); with LXFL 529, 18.5 µM (inactive); in the assay with SNB-78, 7.94 µM (inactive); in the assay on M19-MEL it was 31.9 µM (inactive). Moreover, the GI50 in the assay on KM-20L2 is 48.4 µM (inactive); with HOP-18, 22.8 µM (inactive).

Consider `CC1C=CC(O)[C@]2(CO)CC3(CCC12)OCCO3` (stereo partly specified), for which the GI50 in the assay with DLD-1, in the assay on XF498, in the assay with DMS-114, with LXFL 529, with RXF 631 and in the assay with SNB-78 was > 100 µM (inactive) each time. For the same compound, the GI50 with M19-MEL and in the assay with KM-20L2 was > 100 µM (inactive) throughout.

On to `Cc1cc2c(cc1C)[n+]([O-])c(C(=O)C/C(=N/NC(=O)c1ccccc1O)C(=O)Nc1ccccc1C(C)C)c(C)[n+]2[O-]`, for which the GI50 with DLD-1 was 53.7 µM (inactive); in the assay on DMS-114, 98.6 µM (inactive); with LXFL 529 it was 63 µM (inactive); in the assay on RXF 631 it was > 100 µM (inactive); in the assay with SNB-78, > 100 µM (inactive); in the assay with M19-MEL, > 100 µM (inactive). In addition, the figures for the GI50 in the assay with KM-20L2 and in the assay with HOP-18 were > 100 µM (inactive) and 89.5 µM (inactive), respectively.

For `C[C@H]1CC[P+](C)(c2ccccc2)C1` (stereo partly specified), the GI50 in the assay on DLD-1 is > 100 µM (inactive); with XF498, < 0.01 µM (active); in the assay with DMS-114 it was > 100 µM (inactive); with LXFL 529, > 100 µM (inactive); with SNB-78, > 100 µM (inactive); in the assay with M19-MEL it was > 100 µM (inactive). The GI50 with KM-20L2 and in the assay with HOP-18 was > 100 µM (inactive) each time.

`N=C(N)NS(=O)(=O)c1ccc(NC(=O)c2cccc3c(O)c4ccccc4nc23)cc1`: the GI50 in the assay with DLD-1 was > 100 µM (inactive); with XF498, > 100 µM (inactive); with DMS-114 it was > 100 µM (inactive); with LXFL 529, > 100 µM (inactive); in the assay with SNB-78 it was 42.1 µM (inactive); with M19-MEL, > 100 µM (inactive). The GI50 was > 100 µM (inactive) with KM-20L2 and > 86.5 µM (inactive) in the assay with HOP-18.

As for `CC1=C(C)CC2(CCCCC2=O)[S+]([O-])C1` (stereo unspecified), the GI50 with DLD-1, with XF498, with DMS-114, with LXFL 529, in the assay on SNB-78 and in the assay on M19-MEL was > 100 µM (inactive) throughout. Besides, the GI50 in the assay with KM-20L2 and in the assay on HOP-18 was > 100 µM (inactive) in each case.

In the case of `Cc1cc(C)c2c(c1)N[S@@](=O)S2`, the GI50 in the assay with DLD-1 was 26.9 µM (inactive); with XF498 it was 22.6 µM (inactive); in the assay with DMS-114, 18.7 µM (inactive); with LXFL 529 it was 13.2 µM (inactive); in the assay on SNB-78, 26.1 µM (inactive); in the assay on M19-MEL, 21.7 µM (inactive). Further, the figures for the GI50 with KM-20L2 and with HOP-18 were 51.3 µM (inactive) and 23.6 µM (inactive), respectively.

As for `Cc1ccc(Nc2cccc3c2C(=O)c2cccc(Nc4ccc(C)cc4S(=O)(=O)O)c2C3=O)c(S(=O)(=O)O)c1`, the GI50 in the assay with DLD-1, in the assay with DMS-114, in the assay with LXFL 529, with RXF 631, in the assay on SNB-78 and with M19-MEL was > 100 µM (inactive) each time. Further, the GI50 in the assay on KM-20L2 and with HOP-18 was > 100 µM (inactive) in each case.
